Assay results from the supplement of paper PMC7661543.
± gives the standard deviation of the averaged measurements.

Columns and labels:
Assay in all cases: relative cell number vs DMSO control (72 h) (% of DMSO); higher = less growth inhibition (more cells)
Details in all cases: sgRNA knockout: sgNT
[1] = tested on: BT-20
Experimental: (§1)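 QMAP-Seq: a pool of 5 breast cancer cell lines (ZR-75-1, SKBR3, HCC-38, MDA-MB-231, BT-20), each carrying 12 doxycycline-inducible Cas9 sgRNA perturbations (11 knockouts plus non-targeting sgNT), was treated with compounds for 72 h at four 10-fold doses (10 nM-10 uM or 1 nM-1 uM range). Barcodes were amplified and sequenced, and cell number was interpolated from 293T spike-in standard curves. The result is expressed as % of the median of DMSO wells. Two biological replicates.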

[2] = tested on: HCC-38
Experimental: as §1

[3] = tested on: ZR-75-1
Experimental: as §1

[4] = tested on: MDA-MB-231
Experimental: as §1

[5] = tested on: SKBR3
Experimental: as §1

Structure (SMILES) | relative cell number ([1]; 10 nM) | relative cell number ([1]; 100 nM) | relative cell number ([1]; 1000 nM) | relative cell number ([1]; 10000 nM) | relative cell number ([2]; 10 nM) | relative cell number ([2]; 100 nM) | relative cell number ([2]; 1000 nM) | relative cell number ([2]; 10000 nM) | relative cell number ([3]; 10 nM) | relative cell number ([3]; 100 nM) | relative cell number ([3]; 1000 nM) | relative cell number ([3]; 10000 nM) | relative cell number ([4]; 10 nM) | relative cell number ([4]; 100 nM) | relative cell number ([4]; 1000 nM) | relative cell number ([4]; 10000 nM) | relative cell number ([5]; 10 nM) | relative cell number ([5]; 100 nM) | relative cell number ([5]; 1000 nM) | relative cell number ([5]; 10000 nM) | relative cell number ([1]; 1 nM) | relative cell number ([2]; 1 nM) | relative cell number ([3]; 1 nM) | relative cell number ([4]; 1 nM) | relative cell number ([5]; 1 nM)
Cc1ccc(Nc2nccc(N(C)c3ccc4c(C)n(C)nc4c3)n2)cc1S(N)(=O)=O [Pazopanib] | 102 ± 15 | 86.8 ± 3.6 | 110 ± 3.6 | 73.8 ± 16 | 95.4 ± 1.7 | 95.2 ± 1.4 | 95 ± 15 | 56.8 ± 1.5 | 88.8 ± 3 | 52.6 ± 23 | 60.8 ± 12 | 30.5 ± 1.7 | 97 ± 39 | 90.5 ± 16 | 88.68 ± 0.85 | 66.1 ± 19 | 96.1 ± 6.7 | 48.9 ± 20 | 93.1 ± 34 | 49.1 ± 5.4 |  |  |  |  | 
O=C(CCc1ccc(O)cc1)c1c(O)cc(O)cc1O [Phloretin] | 102 ± 36 | 105 ± 16 | 96.7 ± 8.2 | 107 ± 15 | 104 ± 10 | 105 ± 7 | 101 ± 13 | 113 ± 11 | 91.1 ± 42 | 100 ± 55 | 74 ± 11 | 112 ± 13 | 83.2 ± 2.8 | 103 ± 20 | 127 ± 16 | 106.6 ± 0.71 | 76.3 ± 4.5 | 76.5 ± 1 | 100 ± 1.3 | 90.5 ± 3.9 |  |  |  |  | 
Cc1ccc(C(=O)Cn2c3c(sc2=N)CCCC3)cc1 [PifithrinAlpha] | 135 ± 2.2 | 95.61 ± 0.61 | 103 ± 1.8 | 77.5 ± 1.6 | 91.7 ± 2.4 | 91.4 ± 4.6 | 83.2 ± 14 | 90.2 ± 8.3 | 121 ± 13 | 90.9 ± 20 | 61.5 ± 23 | 37.7 ± 11 | 114 ± 41 | 85.3 ± 57 | 94.3 ± 30 | 57.2 ± 3.8 | 133 ± 10 | 84.2 ± 16 | 85.6 ± 2.5 | 67.1 ± 6.8 |  |  |  |  | 
c1ccc2c(Oc3nc(Nc4ccc(N5CCOCC5)cc4)c4ncn(C5CCCCC5)c4n3)cccc2c1 [Purmorphamine] | 84.2 ± 13 | 99.65 ± 0.55 | 85.43 ± 0.29 | 79.3 ± 11 | 99.2 ± 3.6 | 95.6 ± 7.1 | 90.2 ± 1.9 | 71.8 ± 6.4 | 97.6 ± 49 | 84.6 ± 39 | 92.7 ± 11 | 52.3 ± 1.9 | 95.7 ± 9.6 | 75.6 ± 12 | 97 ± 66 | 52 ± 8.8 | 96.9 ± 34 | 124 ± 43 | 75.9 ± 29 | 51.1 ± 11 |  |  |  |  | 
O=C(O)C(Cc1c[nH]c2ccccc12)N1C(=O)c2ccccc2C1=O (stereo not given) [RG108] | 82.3 ± 16 | 70.3 ± 4.6 | 102 ± 4.9 | 102 ± 14 | 87.6 ± 8 | 88.2 ± 2.6 | 83.03 ± 0.26 | 97.2 ± 1.7 | 94.8 ± 3.9 | 76.2 ± 6.3 | 98.5 ± 2.5 | 71.4 ± 41 | 96.8 ± 28 | 96.5 ± 4 | 80.5 ± 17 | 79.7 ± 30 | 97.1 ± 11 | 64.7 ± 21 | 81 ± 16 | 73.2 ± 5.8 |  |  |  |  | 
CNC(=O)c1cc(Oc2ccc(NC(=O)Nc3ccc(Cl)c(C(F)(F)F)c3)c(F)c2)ccn1 [Regorafenib] | 94.2 ± 7.3 | 94.9 ± 19 | 116 ± 46 | 42.7 ± 9.8 | 105.7 ± 0.71 | 113 ± 7.7 | 110 ± 2.3 | 61.9 ± 11 | 81.3 ± 52 | 68.8 ± 21 | 98.2 ± 40 | 22.1 ± 1.5 | 102 ± 13 | 114.3 ± 0.95 | 94.3 ± 26 | 32.7 ± 7.6 | 84.4 ± 8.2 | 98.8 ± 11 | 101 ± 16 | 38.2 ± 5 |  |  |  |  | 
COc1cc(OC)c(/C=C/S(=O)(=O)Cc2ccc(OC)c(NCC(=O)O)c2)c(OC)c1 [Rigosertib] | 96.5 ± 1.7 | 70.2 ± 4 | 29.8 ± 11 | 29.5 ± 3.1 | 96.39 ± 0.69 | 44.2 ± 2.3 | 26.9 ± 2.6 | 24.8 ± 2.4 | 115 ± 13 | 18.8 ± 0.89 | 16.6 ± 2.9 | 16.3 ± 4.1 | 97.2 ± 1.3 | 94.6 ± 9.7 | 22.9 ± 3.4 | 21.6 ± 4.6 | 88.9 ± 21 | 5.08 ± 2.9 | 11 ± 1 | 11.1 ± 1.8 |  |  |  |  | 
CCc1c2c(nc3ccc(O)cc13)-c1cc3c(c(=O)n1C2)COC(=O)[C@]3(O)CC [SN38] | 77.6 ± 9.2 | 45.3 ± 2.9 | 31.9 ± 5.3 |  | 35.7 ± 5.1 | 19.6 ± 4.8 | 14.5 ± 6 |  | 39.7 ± 5.6 | 36.2 ± 4.4 | 25.4 ± 4.1 |  | 38 ± 19 | 21.8 ± 3.3 | 19.5 ± 2 |  | 35 ± 16 | 23.2 ± 7.1 | 25 ± 0.91 |  | 90.7 ± 2 | 97.2 ± 7.5 | 57.1 ± 2.3 | 111 ± 8.8 | 67.7 ± 30
CC(C)(C)c1cnc(CSc2cnc(NC(=O)C3CCNCC3)s2)o1 [SNS032] | 116 ± 11 | 79.3 ± 15 | 19.7 ± 0.32 | 34.4 ± 1.1 | 100 ± 19 | 81.3 ± 2.6 | 17.3 ± 1.6 | 27.8 ± 0.81 | 99.8 ± 5 | 85.6 ± 9.4 | 9.44 ± 2.4 | 28.7 ± 4 | 106 ± 3.3 | 75.8 ± 13 | 10 ± 2.3 | 12 ± 1.4 | 72.7 ± 6 | 89.5 ± 12 | 7.96 ± 5 | 14.9 ± 1.1 |  |  |  |  | 
CC(=O)Nc1nc(C)c(S(=O)(=O)Nc2ccc(C(O)(C(F)(F)F)C(F)(F)F)cc2)s1 [SR1001] | 111 ± 12 | 92.4 ± 17 | 97.8 ± 18 | 116 ± 32 | 91.5 ± 2.2 | 105 ± 5.6 | 111.7 ± 0.68 | 109 ± 16 | 108 ± 41 | 80.6 ± 15 | 82.9 ± 26 | 113 ± 64 | 117 ± 5.5 | 123 ± 15 | 106 ± 12 | 118 ± 29 | 104 ± 4.2 | 87.5 ± 13 | 120 ± 17 | 121 ± 3.7 |  |  |  |  | 
CC(C)(C)c1ccc(S(=O)(=O)NCc2ccc(C(=O)Nc3cccnc3)cc2)cc1 [STF31] | 101 ± 4.2 | 96.7 ± 4.5 | 85.6 ± 20 | 72.8 ± 18 | 90.7 ± 9.9 | 82.5 ± 12 | 93.2 ± 7.9 | 76.6 ± 10 | 112 ± 27 | 92.7 ± 8 | 50.2 ± 2 | 63.1 ± 33 | 110 ± 16 | 93.4 ± 15 | 61.7 ± 12 | 27.3 ± 3.5 | 97.4 ± 8.6 | 83.52 ± 0.49 | 74.8 ± 10 | 44.1 ± 5.7 |  |  |  |  | 
CN1CCN(CCOc2cc(OC3CCOCC3)c3c(Nc4c(Cl)ccc5c4OCO5)ncnc3c2)CC1 [Saracatinib] | 90.5 ± 32 | 85.8 ± 15 | 73.7 ± 11 | 48.3 ± 18 | 80.8 ± 18 | 87 ± 10 | 78.8 ± 13 | 70.5 ± 12 | 77.5 ± 1.3 | 97.6 ± 53 | 92.6 ± 28 | 48.2 ± 22 | 84.1 ± 37 | 70.3 ± 5.9 | 64.1 ± 5.6 | 33.9 ± 17 | 85.4 ± 45 | 95.9 ± 16 | 62.9 ± 18 | 32.6 ± 8 |  |  |  |  | 
